Assay results as given in US20160022599A1, “System and Method for Fabrication of Uniform Polymer Films Containing Nano and Micro Particles via Continuous Drying Process” (NEW JERSEY INSTITUTE OF TECHNOLOGY, priority 2013, published 2016).
Values after ≈ are worked out from the molar mass of the structure shown.

How the values were obtained:
[1] = cited from earlier work
[2] = cited from earlier work; remark: listed apart in the source
[3] = USP IV flow-through cell dissolution of films in SDS solution; type: physicochemical
Experimental: The dissolution experiments were performed by cutting out a ⅜ inch diameter sample of film and placing it into a flow-though cell dissolution apparatus (USP IV, Sotax, Switzerland) while 118 mL (5.4 mg/mL) aqueous SDS passed through cells (internal diameter of 22.6 mm) at a rate of 16 mL per minute. The amount of API dissolved from the film was measured over time until 100% of drug was released.
Dissolution experiments were performed using a flow-through cell dissolution apparatus (USP IV, Sotax, Switzerland) with cells of an internal diameter of 22.6 mm. Films were horizontally positioned in the cells with glass beads (1 mm in diameter) filling up the conical part at the bottom of each cell. Glass microfiber filters (GF/D grade, Whatman, Schenectady, N.Y., USA) were used in the filter-head. The temperature was maintained at 37±0.5° C. and a flow rate of 15 mL/min was used.
During testing, the dissolution medium (20 mM SDS solution, 100 mL) was circulated by pumping it through each cell. Six samples were used and the average drug release and the standard deviation were plotted as a function of time.
The dissolution behavior of the stripfilms made using the blend (HPMC and PVP) strip films containing GF nanoparticles was examined using a flow-through cell dissolution apparatus (USP IV, Sotax, Switzerland) with cells of an internal diameter of 22.6 mm. Six circular film samples (having an area of 0.712 cm^2) were punched out of each film and tested. For each film, six samples were horizontally positioned in the six cells with 6.5 g of glass beads (1 mm in diameter) filling up the conical part at the bottom of each cell. Pall HT Tuffryn Membrane Disc Filters (0.2 μm) were used for this study in the filter-head in each experiment. The temperature was maintained at 37±0.5° C., and a flow rate of 16 ml/min was used. During testing, a 100 ml dissolution medium (SDS solution (5.4 mg/ml)) was circulated by pumping it through each cell. […]

[4] = cited from earlier work; remark: listed apart in the source
[5] = USP IV flow-through cell dissolution of films in deionized water; type: physicochemical; settings: DI water media
Experimental: Therefore, for the present disclosure, a flow-through cell dissolution apparatus (USP 4, Sotax, Switzerland) with cells of an internal diameter of 22.6 mm was employed. Circular film samples (having an area of 0.712 cm^2) were horizontally positioned in the cells with glass beads (1 mm in diameter) filling the top and bottom of each cell. […] The temperature was maintained at 37±0.5° C. and a flow rate of 16 mL/min was used. Dissolution experiments were carried out using two different media. […] For the second case, deionized (DI) water was used as the media. Six samples were used from each film (S-S8) and the average drug release was plotted as a function of time. To better understand the effect of SDIs on rate of drug release from HPMC films, two new formulations were prepared (formulation S7 and S8). In the first case a high molecular weight HPMC (E4M, Dow chemicals) was used to prepare films loaded with GF nanoparticles. In the second a higher concentration of HPMC ([…]) was used to prepare films containing GF nanoparticles (following the same procedure stated above). The percent drug loading and film thickness were kept same as formulations S-S8 and same dissolution testing protocols were followed. The release kinetics of GF from HPMC films was determined by finding the best fit for the release profiles. […]

[6] = Film disintegration time in water; type: physicochemical; settings: ⅝ inch diameter film in 10 ml of water; film about 16 micrometer (Example 8)
Experimental: The drying temperature was kept constant at 60° C. Casting thickness was adjusted to 200 micron thickness using a Doctor blade film applicator. The film was dried for about 30 min, and the dried film thickness was measured to be about 16 micrometer. The disintegration time of dried films was noted by placing a ⅝ inch diameter film in 10 ml of water. The time taken by the film to disintegrate completely was about 10 seconds.

[7] = Drug particle size (laser diffraction / DLS) in suspension and after re-dispersion from films; type: physicochemical; settings: for d50, Tip Speed: 11.72 m/s / d50, Tip Speed: 14.66 m/s: WSMM, 100 μm media; for median size of suspension after milling of drug alone: no stabilizers
Experimental: An aliquot of the suspensions was dispersed in a 10 ml stabilizer solution and the particle size of the suspensions was measured using a Beckman Coulter LS13320 after milling. The resulting drug suspensions were mixed with a 10% w/w solution of HPMC E15LV and glycerin in a ratio of 1:1, drug suspension to polymer solution. This suspension was stirred for 3 hours with a dual-propeller mixer (McMaster, Catalog no. 3471K5, Los Angeles, Calif., USA). The particle size of the suspensions was measured after mixing with the polymer solution to check for particle growth.
The term “median size” here refers to the 50% vol. passing size of the cumulative volume distribution in LD and cumulant or z-average mean size in DLS. The griseofulvin particle size above 160 nm was measured in LD and the sizes below were measured using DLS. […] The particle size of un-milled drug suspension (in the presence of stabilizers), was also measured and referred as the 0th minute particle size.
GF nanosuspensions were produced via WSMM utilizing a Microcermill (NETZSCH, Fine particle technology LLC, Exton, Pa.) as per previously described methods and processing conditions. HPMC and SDS were chosen as stabilizers. […] At the end of milling, a sample was taken from the holding tank of the mill and dispersed into 15 mL HPMC-SDS stabilizers solution (using a pipette) and the particle size distribution of GF in the sample was then measured using laser diffraction in Coulter LS13320 (Beckman Coulter, Miami, Fla.).
The particle size distribution of GF was measured in suspensions after milling, after mixing with polymer solutions (S-S8) and from re-dispersed films using a laser diffraction technique. […] The size of SDIs (SSG, CCS and CP) was recorded for three cases: after incorporation into HPMC solution, before and after addition of GF nano-suspension and after film re-dispersion. Film re-dispersion was performed by dissolving a small piece of film (about 0.712 cm^2 in area) into 10 mL DI water followed by vortex mixing for 1 min. The same procedure was also followed for formulations S4-S8. Each experiment was performed in triplicate. […]
Particle size measurement of drug nanoparticles in suspension is described herein. To re-disperse drug particles from films, circular punches of film of about 0.71 cm^2 in area were vortex mixed in 3 mL of DI water for 3-5 minutes.
The particle size distribution of GF in the nano-suspensions was measured by laser diffraction in Coulter LS13320 (Beckman Coulter, Miami, Fla., USA). A sample of the suspension was taken at the end of milling from the holding tank of the mill. The sample was dispersed in 15 ml HPMC-SDS stabilizer solution by stirring with a pipette. The sample was added drop-wise until the polarization intensity differential scattering (PIDS) reached 40%.
The same method was used to measure the particles size of GF nanoparticles re-dispersed in water from films. […] The sample particle size was measured after 10 min of magnetic stirring.

## NC(=O)N=NC(N)=O [AZD, azodicarbonamide]
[1]; Table 23
  logP: 5.8
[2]
  pKa: 3.9
[3]; SDS media, similarity and difference factors
  dissolution profiles of films with vs without SDS: statistically similar dissolution profiles with and without SDS
[4]
  Solubility in water at 4° C.: 35.0 µg/mL (≈ 302 µM)
[5]
  dissolution profiles of films with vs without SDS: statistically similar dissolution profiles with and without SDS

## COC1=CC(=O)C[C@@H](C)[C@]12Oc1c(Cl)c(OC)cc(OC)c1C2=O [GF, griseofulvin]
[1]; as quoted
  partition co-efficient, log P: 1.1
[3]; 0.025 M SDS, about 18 micron HPMC film, 70 nm nanoparticles (Example 8)
  percent griseofulvin dissolved within five minutes: about 100%
[6]
  disintegration time of dried film: about 10 seconds
[4]; as quoted
  solubility in water: 0.7 µg/mL (≈ 1.98 µM)
[7]; 7 days of storage
  particle size stability of nanosuspension on storage: the particle size was stable after 7 days of storage
[7]; time 0
  d50, Tip Speed: 11.72 m/s: 21.845 microns
  d50, Tip Speed: 14.66 m/s: 21.845 microns
[7]; time 4
  d50, Tip Speed: 11.72 m/s: 1.378 microns
  d50, Tip Speed: 14.66 m/s: 0.479 microns
[7]; time 8
  d50, Tip Speed: 11.72 m/s: 0.378 microns
  d50, Tip Speed: 14.66 m/s: 0.267 microns
[7]; time 16
  d50, Tip Speed: 11.72 m/s: 0.149 microns
  d50, Tip Speed: 14.66 m/s: 0.134 microns
[7]; time 32
  d50, Tip Speed: 11.72 m/s: 0.122 microns
  d50, Tip Speed: 14.66 m/s: 0.112 microns
[7]; time 64
  d50, Tip Speed: 11.72 m/s: 0.106 microns
  d50, Tip Speed: 14.66 m/s: 0.087 microns
[7]; time 120
  d50, Tip Speed: 11.72 m/s: 0.084 microns
  d50, Tip Speed: 14.66 m/s: 0.069 microns
[7]; time 180
  d50, Tip Speed: 11.72 m/s: 0.069 microns
  d50, Tip Speed: 14.66 m/s: 0.061 microns
[7]; time 240
  d50, Tip Speed: 11.72 m/s: 0.067 microns
  d50, Tip Speed: 14.66 m/s: 0.064 microns
[7]; time 300
  d50, Tip Speed: 11.72 m/s: 0.062 microns
  d50, Tip Speed: 14.66 m/s: 0.059 microns
[7]; time 360
  d50, Tip Speed: 11.72 m/s: 0.060 microns
  d50, Tip Speed: 14.66 m/s: 0.056 microns
[7]
  median size of suspension after milling of drug alone: 4 um
[7]; tip speed 11.72 m/s
  final particle size at 360 min of milling: 60 nm
[7]; tip speed 14.66 m/s
  final particle size at 360 min of milling: 56 nm

## COc1ccc2cc([C@H](C)C(=O)O)ccc2c1 [NPX, naproxen]
[7]
  median size of nanoparticles milled in the presence of HPMC alone: 147 nm
  median size of suspension after milling of drug alone: 12 um

## COC1=CC(=O)C[C@@H](C)[C@]12Oc1c(Cl)c(OC)cc(OC)c1C2=O [as received powder, griseofulvin]
[3]; SDS solution […], FIG. 47
  % of GF released in 50 minutes: 40%
